This is an account of results in patent publication US11814680B2, “Biomarkers for detecting senescent cells” (Universität für Bodenkultur Wien, priority 2017, dated 2023).

Marks after values point to notes of the source that are not given here.

The test system of series [1] is p16-3MR mice. Description: ROC analysis of discriminatory power of circulating microRNAs. Format: in vivo, mouse. Conditions: serum, RT-qPCR, symbol after the number = significance; for ROC Analysis AUC Senescence: DOX vs PBS; for ROC Analysis AUC Senolytic Treatment: DOX/GCV vs DOX. The method, then: (§1) Statistical analysis was performed using Medcalc (version 18.2.1). Normal distribution was assessed using D'Agostino-Pearson test, where normality was accepted at p>0.05. One-way ANOVA together together with Student-Newman-Keuls test for all pairwise comparisons (post-hoc tests) was used to identify significant changes between groups (p<0.05). To assess the discriminatory power of individual microRNAs, receiver operating characteristic (ROC) analysis was applied. ROC curves were plotted using sensitivity (y-axis) and 1-specificity (x-axis) and the area under the ROC curve (AUC) was calculated. MicroRNAs with AUC-values of >0.7 were considered as good discriminators/biomarkers. MicroRNAs with AUC-values >0.8 were considered very good discriminators/biomarkers.
In order to assess the diagnostic power of circulating microRNAs for the exposure with senescence inducing substances (DOX) as well as the efficacy of senolytic treatment, ROC analysis was performed and the area-under-the-curve (AUC) was calculated. […] Table 23 below summarizes AUC values as well as 95% confidence intervals for 24 selected circulating microRNAs.
For orientation: Quantitative PCR measures a nucleic acid by following its amplification.

Series [2] relates to p16-3MR mice. The series can be described thus: RT-qPCR verification of serum circulating microRNA changes, one-way ANOVA. Format: in vivo, mouse. The note with it: for change of serum level following senolytic treatment (DOX/GCV compared to DOX): p<0.05, in words; for One-way ANOVA Senolytic Treatment (DOX/GCV) / One-way ANOVA Senescence (DOX vs PBS): serum; for One-way ANOVA Senolytic Treatment (DOX/GCV): DOX/GCV compared to DOX; for One-way ANOVA Senescence (DOX vs PBS): n=8 per group, male and female mice; for regulation in serum after exposure to DOX compared to PBS: independent of gender, in words. The method, then: p16-3MR (Demaria et al, 2014, Developmental Cell 31:722-733) mice were bred in house and maintained in the AALAC-accredited Buck Institute for Research on Aging (Novato, Calif.) animal facility. 10 to 12-week-old p16-3MR […] mice were used for experiments. Mice were divided in 4 groups and each group consisted of 8 animals, 5 female, and 3 male, respectively. In group A, control mice were injected with PBS. In group B, mice were treated with Ganciclovir (GCV) (Sigma-Aldrich) dissolved in PBS for 5 consecutive days. In group C, mice were treated with one dose of Doxorubicine hydrochloride (Sigma-Aldrich) dissolved in PBS. In group D, mice were first treated with Doxorubicine and then treated 10 days later with GCV. Mice were intraperitoneally injected with one dose of 10 mg/kg of Doxorubicine hydrochloride, and GCV was administered daily by intraperitoneal injections for 5 consecutive days at concentration of 25 mg/kg in PBS. 4 days after the last GCV dose, animals were euthanized with CO2 and blood was withdrawn immediately. Blood was then incubated for 30 min at room temperature and centrifuged at 3400×g for 10 min. Serum was carefully collected in a sterile tube without disturbing the cell pellet and stored at −80° C. for further experiments.
Total RNA extraction was performed from 200 μl of serum using the Qiagen miRNeasy extraction kit (Qiagen, Germany). RNA yield was quality checked for homogenous extraction efficiency and hemolysis on the basis qPCR amplification of spiked-in as well as hemolysis-responsive RNAs (Blondal et al). In total 2 μl total RNA were used for reverse transcription using the Exiqon Universal RT kit II (Exiqon, Denmark). The obtained cDNA samples were pre-diluted 1:40 and subsequently mixed with SYBR Green® Mix (Exiqon, Denmark) to achieve a 1:100 dilution. The mix was distributed to primer-coated 384-well plates containing dried primer pairs for 96 selected microRNA or quality control assays. QPCR amplification was performed on a Roche LightCycler 480 II, using the manufacturer's recommendation for annealing, extension and denaturation.
Raw Cq-values were computed using the 2nd derivative method. Melting curves were checked for peaks to ensure specificity of the amplification reactions. Cq-values were subsequently normalized using Spike-In controls as references, to reduce technical noise in the data.
as §1

Turning to “miR-23b-3p: circulating microRNA biomarker, SEQ ID No. 47 (AUCACAUUGCCAGGGAUUACC; expressed or natural sequence; listed as Homo sapiens)”, in the series with p16-3MR mice [1], the “ROC Analysis AUC Senescence” value is given as 0.563° and the “ROC Analysis AUC Senolytic Treatment” value is reported as 0.875*. Moreover, in the series on p16-3MR mice [2], the “change of serum level following senolytic treatment (DOX/GCV compared to DOX)” value (“change … (DOX/GCV compared to DOX)” below) is given as “significantly changed”, the “One-way ANOVA Senolytic Treatment (DOX/GCV)” value is “* (significant p < 0.05)” and the “One-way ANOVA Senescence (DOX vs PBS)” value was “○”.
Regarding “miR-31-5p: circulating microRNA biomarker, SEQ ID No. 87 (AGGCAAGAUGCUGGCAUAGCU; expressed or natural sequence; listed as Homo sapiens)”, in the series on p16-3MR mice [1], the “ROC Analysis AUC Senescence” value is recorded as 0.688+ and the “ROC Analysis AUC Senolytic Treatment” value came to 0.672°. In the series with p16-3MR mice [2], the “change … (DOX/GCV compared to DOX)” value is “significantly changed”, the “One-way ANOVA Senolytic Treatment (DOX/GCV)” value is on record as “○” and the “One-way ANOVA Senescence (DOX vs PBS)” value is recorded as “+ (by trend p < 0.2)”.
Turning to “miR-34a-3p: circulating microRNA biomarker, SEQ ID No. 59 (CAAUCAGCAAGUAUACUGCCCU; expressed or natural sequence; listed as Homo sapiens)”, in the series with p16-3MR mice [1], the “ROC Analysis AUC Senescence” value was 0.953* and the “ROC Analysis AUC Senolytic Treatment” value amounted to 0.5°. Moreover, in the series with p16-3MR mice [2], the “regulation in serum after exposure to DOX compared to PBS” value (“regulation in serum … compared to PBS” below) is recorded as “significantly (up- or down-regulated)”, the “One-way ANOVA Senolytic Treatment (DOX/GCV)” value was “○” and the “One-way ANOVA Senescence (DOX vs PBS)” value is recorded as “* (significant p < 0.05)”.
For the substance “miR-125a-5p: circulating microRNA biomarker, SEQ ID No. 90 (UCCCUGAGACCCUUUAACCUGUGA; expressed or natural sequence; listed as Homo sapiens)”, in the series with p16-3MR mice [1], the “ROC Analysis AUC Senescence” value was 0.742+ and the “ROC Analysis AUC Senolytic Treatment” value was 0.789*. Further, in the series on p16-3MR mice [2], the “change … (DOX/GCV compared to DOX)” value is “significantly changed”, the “One-way ANOVA Senolytic Treatment (DOX/GCV)” value is recorded as “* (significant p < 0.05)” and the “One-way ANOVA Senescence (DOX vs PBS)” value is “+ (by trend p < 0.2)”.
The like results for “miR-181b-5p: circulating microRNA biomarker, SEQ ID No. 84 (AACAUUCAUUGCUGUCGGUGGGU; expressed or natural sequence; listed as Homo sapiens)” were, in that order, 0.680+, 0.75+, “significantly changed”, “+ (by trend p < 0.2)” and “+ (by trend p < 0.2)”.
The corresponding values for “miR-183-3p: circulating microRNA biomarker, SEQ ID No. 85 (GUGAAUUACCGAAGGGCCAUAA; expressed or natural sequence; listed as Homo sapiens)” are 0.563°, 0.891*, “significantly changed”, “* (significant p < 0.05)” and “○”.
For “miR-199a-5p: circulating microRNA biomarker, SEQ ID No. 81 (CCCAGUGUUCAGACUACCUGUUC; expressed or natural sequence; listed as Homo sapiens)”, in the series with p16-3MR mice [1], the “ROC Analysis AUC Senescence” value is on record as 0.906* and the “ROC Analysis AUC Senolytic Treatment” value is on record as 0.781*. Besides, in the series with p16-3MR mice [2], the “regulation in serum … compared to PBS” value is on record as “significantly (up- or down-regulated)”, the “One-way ANOVA Senolytic Treatment (DOX/GCV)” value is “+ (by trend p < 0.2)” and the “One-way ANOVA Senescence (DOX vs PBS)” value is recorded as “* (significant p < 0.05)”.
With “miR-199b-5p: circulating microRNA biomarker, SEQ ID No. 82 (CCCAGUGUUUAGACUAUCUGUUC; expressed or natural sequence; listed as Homo sapiens)”, in the series with p16-3MR mice [1], the “ROC Analysis AUC Senescence” value was 0.750+ and the “ROC Analysis AUC Senolytic Treatment” value was 0.734+. Further, in the series on p16-3MR mice [2], the “regulation in serum … compared to PBS” value is on record as “significantly (up- or down-regulated)”, the “One-way ANOVA Senolytic Treatment (DOX/GCV)” value was “+ (by trend p < 0.2)” and the “One-way ANOVA Senescence (DOX vs PBS)” value was “* (significant p < 0.05)”.
As for “miR-215-5p: circulating microRNA biomarker, SEQ ID No. 86 (AUGACCUAUGAAUUGACAGAC; expressed or natural sequence; listed as Homo sapiens)”, in the series with p16-3MR mice [1], the “ROC Analysis AUC Senescence” value was found to be 0.531° and the “ROC Analysis AUC Senolytic Treatment” value is 0.922*. In the series with p16-3MR mice [2], the “change … (DOX/GCV compared to DOX)” value was “significantly changed”, the “One-way ANOVA Senolytic Treatment (DOX/GCV)” value is reported as “* (significant p < 0.05)” and the “One-way ANOVA Senescence (DOX vs PBS)” value was “○”.
As for “miR-345-5p: circulating microRNA biomarker, SEQ ID No. 83 (GCUGACUCCUAGUCCAGGGCUC; expressed or natural sequence; listed as Homo sapiens)”, in the series on p16-3MR mice [1], the “ROC Analysis AUC Senescence” value is listed as 0.781* and the “ROC Analysis AUC Senolytic Treatment” value was 0.875*. Besides, in the series with p16-3MR mice [2], the “regulation in serum … compared to PBS” value is reported as “significantly (up- or down-regulated)”, the “One-way ANOVA Senolytic Treatment (DOX/GCV)” value is “* (significant p < 0.05)” and the “One-way ANOVA Senescence (DOX vs PBS)” value was “* (significant p < 0.05)”.
“miR-375-5p: circulating microRNA biomarker, SEQ ID No. 88 (UUUGUUCGUUCGGCUCGCGUGA; expressed or natural sequence; listed as Homo sapiens)”: in the series on p16-3MR mice [1], the “ROC Analysis AUC Senescence” value was found to be 0.570° and the “ROC Analysis AUC Senolytic Treatment” value is 0.859*. In addition, in the series with p16-3MR mice [2], the “change … (DOX/GCV compared to DOX)” value is listed as “significantly changed”, the “One-way ANOVA Senolytic Treatment (DOX/GCV)” value is “* (significant p < 0.05)” and the “One-way ANOVA Senescence (DOX vs PBS)” value was “○”.
“miR-409-3p: circulating microRNA biomarker, SEQ ID No. 89 (GAAUGUUGCUCGGUGAACCCCU; expressed or natural sequence; listed as Homo sapiens)”: in the series on p16-3MR mice [1], the “ROC Analysis AUC Senescence” value was determined as 0.609° and the “ROC Analysis AUC Senolytic Treatment” value is 0.859*. In addition, in the series on p16-3MR mice [2], the “change … (DOX/GCV compared to DOX)” value is given as “significantly changed”, the “One-way ANOVA Senolytic Treatment (DOX/GCV)” value is “* (significant p < 0.05)” and the “One-way ANOVA Senescence (DOX vs PBS)” value is “○”.
The corresponding values for “miR-483-5p: circulating microRNA biomarker, SEQ ID No. 91 (AAGACGGGAGGAAAGAAGGGAG; expressed or natural sequence; listed as Homo sapiens)” are 0.563°, 0.766*, “significantly changed”, “* (significant p < 0.05)” and “○”.
